Reference: patent publication US4556677A, “Alkane and alkene derivatives and their use” (Farmos Group Ltd., priority 1981, dated 1985)
Where a name gives a salt, the structure may show the parent alone. Read-outs that look alike come from different tables or passages of the source.

Key:
estrogen receptors = biological target: T1, estrogen receptors (Rattus norvegicus, UniProt P06211); assay: affinity to estrogen receptors, competition with 3H-labelled 17-β-estradiol (dextran-charcoal method); format: binding; conditions: rat uterus cytosol, Table 1; read-out: Affinity (concentration of compound where 50% competition (inhibition) with 3H-estradiol occurred)
T1 construct: rat uterus cytosol preparation; from tissue; host or cells: rat uterus cytosol
T1 sequence (P06211 1-600): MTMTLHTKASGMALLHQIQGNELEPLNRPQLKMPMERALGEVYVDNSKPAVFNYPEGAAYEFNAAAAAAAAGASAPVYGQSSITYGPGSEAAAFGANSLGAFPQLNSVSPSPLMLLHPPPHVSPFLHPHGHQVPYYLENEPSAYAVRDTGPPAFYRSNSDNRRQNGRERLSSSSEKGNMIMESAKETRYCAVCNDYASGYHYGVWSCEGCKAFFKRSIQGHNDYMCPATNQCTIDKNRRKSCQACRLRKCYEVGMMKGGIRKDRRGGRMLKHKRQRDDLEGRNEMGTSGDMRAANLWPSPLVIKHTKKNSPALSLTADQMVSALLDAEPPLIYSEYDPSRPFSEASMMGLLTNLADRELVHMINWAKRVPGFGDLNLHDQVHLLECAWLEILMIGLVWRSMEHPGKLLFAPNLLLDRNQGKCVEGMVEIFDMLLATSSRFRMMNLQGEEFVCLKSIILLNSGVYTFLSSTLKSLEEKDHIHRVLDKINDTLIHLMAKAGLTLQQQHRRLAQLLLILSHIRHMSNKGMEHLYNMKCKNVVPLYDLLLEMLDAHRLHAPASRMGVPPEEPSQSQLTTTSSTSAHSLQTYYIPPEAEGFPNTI
Description: The affinity to estrogen receptors was determined by the ability of the molecules to compete with ^3 H-labelled 17-β-estradiol in rat uterus cytosol preparation. After incubation, receptor-bound and receptor-unbound ligands were separated by a known dextrancharcoal method. (Korenman, S. G.: "Comparative binding affinity of estrogens and its relation to estrogenic potency". Steroids 13: 163-177, 1969). […] The results in table 1 are shown as follows: | with ^3 H--estradiol occurred

[1] = test system: MCF-7 human mammary adenocarcinoma cell line; assay: anti-tumour effect in vitro, growth of MCF-7 cells (bioluminescence ATP assay); format: cell-based; conditions: MCF-7, Table 3, read-out: Antitumour effect (IC50 = concentration of compound where 50% inhibition of cell growth could be seen)
Description: The anti-tumour effect was studied in vitro as follows:
The growth of MCF-7 cell line (human mammary adenocarcinoma, known to be estrogen-dependent) was evaluated in the presence or absence of estradiol, medroxyprogesterone acetate or the molecules to be investigated. Combinations of molecule plus estradiol and molecule plus medroxyprogesterone were also studied. The amount of living cells after 4 h, 24 h and 48 h incubations were determined by bioluminescence assay (intracellular ATP determination).
The antitumour effects of the compounds had been tested in vitro against MCF-7 human mammary adenocarcinoma cell line and in vivo against DMBA-induced rat mammary adenocarcinomas and transplantable mammary adenocarcinoma.
In table 3 the antitumour effects of certain compounds can be seen.

immature mouse uterus [2] = assay: estrogenic effect in vivo, immature mouse uterus weight; conditions: for estrogenic effect (in words): immature mouse uterus weight; for oestrogenic effect, % less than that of oestradiol 0.05 mg/kg: s.c., immature mice; for Given alone: oestrogenic effect (in words): Table 2, 0.5 mg/kg
Description: (§1) The estrogen-antiestrogen (progesterone-antiprogesterone) effect in vivo was determined as follows:
The estrogenic properties of the molecules were determined by administering the molecules, suspended in sesam oil, subcutaneously to 21 days old immature mice on three consecutive days. The mice were killed on the fourth day and the uterus was weighed. Estradiol (positive control) increases the weight of the uterus. The weight correlates with the estrogenic effect of the molecules.
The estrogenic effect of compounds of the invention as measured by their ability to increase the weight of immature mouse uterus was usually far less than that of oestradiol, the positive control. […] At the dose of 0.5 mg/kg the oestrogenic effect of compound 1, 7 and 8 were respectively 20%, 75% and 83% less and at the dose of 5 mg/kg the oestrogenic effect of compound 2 was 60% less than that of oestradiol 0.05 mg/kg.
(§2) In Table 2 a summary of the oestrogenic/antioestrogenic and progestanic/antiprogestanic effect of some of the compounds can be seen. The percentages refer to increase/reduction in mice uterus weights.

immature mouse uterus [3] = assay: antiestrogenic effect in vivo, inhibition of oestradiol induced uterus weight increase in immature mice; conditions: for antiestrogenic effect (in words): immature mice
Description: as §1
The antiestrogenic effects of the molecules were determined in a similar manner in immature mice. In this case, the ability of the molecules to inhibit estrogen-induced uterus weight increase was investigated, too.
The compound 1 at a dose of 0.5 mg/kg caused a 50% inhibition of oestradiol induced effect on mouse uterus.
as §2

mouse uterus [4] = assay: progestanic effect in vivo, reduction of mouse uterus weight; conditions: for Given alone: progestanic effect (in words) / Given alone: reduction in mice uterus weight: Table 2, 0.5 mg/kg
Description: as §1
(§3) The (anti)progestanic effects were studied in a similar manners as the estrogenic ones. Medroxyprogesterone acetate, which decreases uterus weight, was used as reference.
(§4) The progestanic and antiprogestanic effects of compounds were measured as described earlier. The compound No. 2 reduced the weight of mouse uterus by 49% compared to control while medroxyprogesterone acetate gave 40% reduction.
as §2

mouse uterus [5] = assay: antiprogestanic/synergistic effect in vivo, given together with medroxyprogesterone acetate, mouse uterus weight; conditions: for Given with medroxyprogesterone acetate: effect (in words) / Given with medroxyprogesterone acetate: reduction in mice uterus weight: Table 2, 0.5 mg/kg, with medroxyprogesterone acetate 0.06 mg/kg
Description: as §1, §3, §4, §2

[6] = test system: transplantable rat mammary adenocarcinoma; assay: effect on transplantable rat mammary adenocarcinoma; format: in vivo
Source text: (§5) The anti-tumour effect was investigated in vivo against DMBA-induced rat mammary adenocarcinomas and transplantable mammary adenocarcinoma according to the following methods:
Transplantable rat mammary adenocarcinoma was developed by inoculating pieces of DMBA-induced carcinomas subcutaneously to healthy mature female rats. A tumor which expressed malignant growth was selected for further transplantations.
The effects of compounds mentioned earlier against transplantable rat mammary adenocarcinoma can be seen in table 4.
The figures in table 4 refer to relative sizes compared to controls which is 100.

[7] = test system: DMBA-induced rat mammary adenocarcinomas; assay: antitumour effect in vivo against DMBA-induced rat mammary adenocarcinomas
Description: as §5
Mammary adenocarcinomas were induced by DMBA in 35-40 days old female rats. Treatment with the molecules to be investigated was started after palpable tumours had appeared. Tumour size and numbers of tumours were evaluated twice a week. Tumour sizes in the control group, treated with solvent, were compared with the test groups.
The antitumour effect in vivo against DMBA-induced mammary carcinomas was investigated as described earlier. […] Compound 2 at the dose of 7.5 mg/kg caused a 63% decrease in the size of tumours compared to the control.

[8] = together with medroxyprogesterone acetate
[9] = Table 2, 0.5 mg/kg, with oestradiol 0.05 mg/kg

Structure (SMILES): CCC(C1CCCC1)C(c1ccccc1)c1ccc(O)cc1 (stereo not shown) [Compound 4, 2-cyclopentyl-1-(p-hydroxyphenyl)-1-phenylbutane]
- IC50 (estrogen receptors): 0.1 to 1 µM
- IC50 ([1]; Homo sapiens, MCF7): 1 to 5 µM

Structure (SMILES): CCC(C1CCCC1)C(c1ccccc1)c1ccc(O)cc1 (stereo not shown) [Compound 6, 2-cyclopentyl-1-(p-hydroxyphenyl)-1-phenylbutane]
- estrogenic effect (in words) (immature mouse uterus [2]): did not possess any estrogenic effects of their own
- antiestrogenic effect (in words) (immature mouse uterus [3]): not antiestrogenic
- progestanic effect (in words) (mouse uterus [4]; given alone): did not possess progestanic effects
- antiprogestanic / synergistic effect with medroxyprogesterone acetate (in words) (mouse uterus [5]; [8]): slight inhibition of medroxyprogesterone acetate produced effect
- IC50 [1]: 1 to 5 µM

Structure (SMILES): CCC(CO)C(CC)c1ccc(O)cc1 (stereo not shown) [Compound 12, 2-ethyl-3-(p-hydroxyphenyl)-1-pentanol]
- IC50 (estrogen receptors): 10 to 100 µM

Structure (SMILES): CCC(=C(c1ccc(OC)cc1)c1ccc(OCCN(C)C)cc1)C1CCCC1 [Compound 11, 2-cyclopentyl-1-[p-(N,N-dimethyl-2-aminoethoxy)phenyl]-1-(p-methoxyphenyl)-1-butene]
- IC50 (estrogen receptors): 10 to 100 µM
- Given alone: progestanic effect (in words) (mouse uterus [4]; given alone): progestanic
- Given alone: reduction in mice uterus weight (mouse uterus [4]; given alone): 20%
- progestanic effect (in words) (mouse uterus [4]; given alone): purely due to its progestanic effect
- reduction of mouse uterus weight (mouse uterus [4]; given alone, 0.5 mg/kg): 20%
- Given with medroxyprogesterone acetate: effect (in words) (mouse uterus [5]): synergistic
- Given with medroxyprogesterone acetate: reduction in mice uterus weight (mouse uterus [5]): 67%
- reduction of mouse uterus weight together with medroxyprogesterone acetate (mouse uterus [5]; together with medroxyprogesterone acetate, vs 40% for the acetate alone): 67%
- IC50 ([1]; Homo sapiens, MCF7): 1 to 10 µM
- relative tumour size compared to controls which is 100 ([6]; 1.0 mg/kg): 87
- relative tumour size compared to controls which is 100 ([6]; 5.0 mg/kg): 87
- relative tumour size compared to controls which is 100 ([6]; 10.0 mg/kg): 50

Structure (SMILES): CCC(c1ccc(O)cc1)C(CC)C1CCCC1 (stereo not shown) [Compound 9, 3-cyclopentyl-4-(p-hydroxyphenyl)-hexane]
- IC50 (estrogen receptors): 0.1 to 1 µM
- IC50 ([1]; Homo sapiens, MCF7): 1 to 10 µM

Structure (SMILES): CC/C(=C(/c1ccccc1)c1ccc(O)cc1)C1CCCC1 [Compound 1, (E)--2-cyclopentyl-1-(p-hydroxyphenyl)-1-phenyl-1-butene]
- IC50 (estrogen receptors): 0.1 to 1 µM
- oestrogenic effect, % less than that of oestradiol 0.05 mg/kg (immature mouse uterus [2]; 0.5 mg/kg): 20%
- estrogenic effect (in words) (immature mouse uterus [2]): dose dependent
- inhibition of oestradiol induced effect on mouse uterus (immature mouse uterus [3]; 0.5 mg/kg): 50%
- IC50 ([1]; Homo sapiens, MCF7): 1 to 5 µM
- decrease in size of tumours compared to the control ([7]; 10 mg/kg): 75%
- growth of the tumours (in words) ([7]; 10 mg/kg): the growth of the tumours was slowed
- number of the tumours (in words) ([7]; 10 mg/kg): the number of the tumours was decreasing
- relative tumour size compared to controls which is 100 ([6]; 1.0 mg/kg): 80
- relative tumour size compared to controls which is 100 ([6]; 5.0 mg/kg): 77
- relative tumour size compared to controls which is 100 ([6]; 10.0 mg/kg): 58
- relative tumour size compared to controls which is 100 ([6]; 20.0 mg/kg): 64
- relative tumour size compared to controls which is 100 ([6]; 40.0 mg/kg): 40

Structure (SMILES): CC(=O)O[C@]1(C(C)=O)CC[C@H]2[C@@H]3C[C@H](C)C4=CC(=O)CC[C@]4(C)[C@H]3CC[C@@]21C [medroxyprogesterone acetate, Medroxyprogesterone acetate, reference compound]
- decrease of mouse uterus weight by medroxyprogesterone acetate alone (mouse uterus [4]; reference compared with compound 8): 20%
- reduction of mouse uterus weight by medroxyprogesterone acetate alone (mouse uterus [4]; reference compared with compounds 2 and 11): 40%

Structure (SMILES): CC/C(=C(\c1ccccc1)c1ccc(OCCN(C)C)cc1)C1CCCC1 [Compound 2, (Z)--2-cyclopentyl-1-(p-(N,N--dimethyl-2-amino-ethoxy)phenyl)-1-phenyl-1-butene, hydrochloride]
- IC50 (estrogen receptors): 0.1 to 10 µM
- oestrogenic effect, % less than that of oestradiol 0.05 mg/kg (immature mouse uterus [2]; 5 mg/kg): 60%
- Given alone: oestrogenic effect (in words) (immature mouse uterus [2]): oestrogenic
- estrogenic effect (in words) (immature mouse uterus [2]): dose dependent
- inhibition of oestradiol induced effect on mouse uterus (immature mouse uterus [3]; 5 mg/kg): 50%
- Given with oestradiol: effect (in words) (immature mouse uterus [3]; [9]): antioestrogenic
- Given with oestradiol: reduction in mice uterus weight (immature mouse uterus [3]; [9]): 36%
- Given alone: progestanic effect (in words) (mouse uterus [4]; given alone): progestanic
- Given alone: reduction in mice uterus weight (mouse uterus [4]; given alone): 49%
- reduction of mouse uterus weight compared to control (mouse uterus [4]; given alone, dose not given): 49%
- Given with medroxyprogesterone acetate: effect (in words) (mouse uterus [5]): synergistic
- Given with medroxyprogesterone acetate: reduction in mice uterus weight (mouse uterus [5]): 61%
- antiprogestanic / synergistic effect with medroxyprogesterone acetate (in words) (mouse uterus [5]; [8]): no antiprogestanic effects but a synergistic effect could be seen
- IC50 ([1]; Homo sapiens, MCF7): 5 to 10 µM
- decrease in size of tumours compared to the control ([7]; 7.5 mg/kg): 63%
- relative tumour size compared to controls which is 100 ([6]; 1.0 mg/kg): 82
- relative tumour size compared to controls which is 100 ([6]; 5.0 mg/kg): 87
- relative tumour size compared to controls which is 100 ([6]; 10.0 mg/kg): 69

Structure (SMILES): CC/C(=C(\c1ccccc1)c1ccc(O)cc1)C1CCCC1 [Compound 3, (Z)-2-cyclopentyl-1-(p-hydroxyphenyl)-1-phenyl-1-butene]
- IC50 (estrogen receptors): 0.1 to 10 µM
- IC50 ([1]; Homo sapiens, MCF7): 1 to 5 µM

Structure (SMILES): CCC(=C(c1ccc(O)cc1)c1ccc(OCCN(C)C)cc1)C1CCCC1 [Compound 7, 2-cyclopentyl-1-[p-(N,N-dimethyl-2-aminoethoxy)phenyl]-1-(p-hydroxyphenyl)-1-butene]
- IC50 (estrogen receptors): 0.1 to 1 µM
- oestrogenic effect, % less than that of oestradiol 0.05 mg/kg (immature mouse uterus [2]; 0.5 mg/kg): 75%
- Given alone: oestrogenic effect (in words) (immature mouse uterus [2]): oestrogenic
- estrogenic effect (in words) (immature mouse uterus [2]): dose dependent
- inhibition of oestradiol induced effect on mouse uterus (immature mouse uterus [3]; 5 mg/kg): 48%
- Given with oestradiol: reduction in mice uterus weight (immature mouse uterus [3]; Table 2, 5 mg/kg, with oestradiol 0.05 mg/kg): 48%
- progestanic effect (in words) (mouse uterus [4]; given alone): did not posses any progestanic effects of its own
- antiprogestanic / synergistic effect with medroxyprogesterone acetate (in words) (mouse uterus [5]; [8]): clear dose dependant antiprogestanic effect
- IC50 ([1]; Homo sapiens, MCF7): 1 to 5 µM

Structure (SMILES): CCC(C1CCCC1)C(c1ccccc1)c1ccc(O)cc1 (stereo not shown) [Compound 5, 2-cyclopentyl-1-(p-hydroxyphenyl)-1-phenylbutane]
- estrogenic effect (in words) (immature mouse uterus [2]): did not possess any estrogenic effects of their own
- antiestrogenic effect (in words) (immature mouse uterus [3]): not antiestrogenic
- progestanic effect (in words) (mouse uterus [4]; given alone): did not possess progestanic effects
- antiprogestanic / synergistic effect with medroxyprogesterone acetate (in words) (mouse uterus [5]; [8]): slight inhibition of medroxyprogesterone acetate produced effect
- IC50 [1]: 1 to 5 µM

Structure (SMILES): CC/C(=C(\c1ccccc1)c1ccc(OCCNC)cc1)C1CCCC1 [Compound 10, (Z)--2-cyclopentyl-1-[p-(N--methyl-2-aminoethoxy)-phenyl]-1-phenyl-1-butene, hydrochloride]
- IC50 (estrogen receptors): 10 to 100 µM
- IC50 ([1]; Homo sapiens, MCF7): 5 to 10 µM
